Values quoted from earlier work in patent publication US20030129242A1, “Sterile filtered nanoparticulate formulations of budesonide and beclomethasone having tyloxapol as a surface stabilizer” (priority 2002, published 2003).

Row | solubility in chloroform (chloroform) | solubility in ethanol (ethanol) | solubility in heptane (heptane) | solubility in water | SMILES
1 | freely soluble | sparingly soluble | practically insoluble | practically insoluble | CCCC1O[C@@H]2C[C@H]3C4CCC5=CC(=O)C=CC5(C)[C@H]4[C@@H](O)CC3(C)C2(C(=O)CO)O1 (mixture of isomers) [Budesonide, (RS)-11,16, 17,21-Tetrahydroxy-pregna-1,4-diene-3,20-dione cyclic 16,17-acetal with butraldehyde]
2 |  |  |  | practically insoluble | CC1(C)O[C@@H]2C[C@H]3[C@@H]4C[C@H](F)C5=CC(=O)C=C[C@]5(C)[C@H]4[C@@H](O)C[C@]3(C)[C@]2(C(=O)CO)O1 [Flunisolide, 6α-fluoro-11β, 16α, 17,21-tetrahydroxy-pregna-1,4-diene-3,20-dione cyclic-16,17-acetal with acetone]
